# Results as given in patent US20170035894A1, “DRUG DELIVERY CONJUGATES FOR TREATING RESISTANT CANCER AND FOR USE IN COMBINATION THERAPY” (ENDOCYTE, INC., priority 2014, published 2017).
# What was measured:
# NCl/ADR-RES-Cl2 = assay: In vitro activity against cancer cell lines, 3H-thymidine incorporation; format: cell-based, human
# Method: (§1) METHOD. In vitro activity against various cancer cell lines. IC50 values were generated for various cell lines. Cells were heavily seeded in 24-well Falcon plates and allowed to form nearly confluent monolayers overnight. Thirty minutes prior to the addition of the test compound, spent medium was aspirated from all wells and replaced with fresh folate-deficient RPMI medium (FFRPMI). A subset of wells were designated to receive media containing 100 μM folic acid. The cells in the designated wells were used to determine the targeting specificity. Without being bound by theory it is believed herein that the cytotoxic activity produced by test compounds in the presence of excess folic acid, i.e. where there is competition for FR binding, corresponds to the portion of the total activity that is unrelated to FR-specific delivery. Following one rinse with 1 mL of fresh FFRPMI containing 10% heat-inactivated fetal calf serum, each well received 1 mL of medium containing increasing concentrations of test compound (4 wells per sample) in the presence or absence of 100 μM free folic acid as indicated. Treated cells were pulsed for 2 h at 37° C., rinsed 4 times with 0.5 mL of media, and then chased in 1 mL of fresh medium up to 70 h. Spent medium was aspirated from all wells and replaced with fresh medium containing 5 μCi/mL ^3H-thymidine. Following a further 2 h 37° C. incubation, cells were washed 3 times with 0.5 mL of PBS and then treated with 0.5 mL of ice-cold 5% trichloroacetic acid per well. After 15 min, the trichloroacetic acid was aspirated and the cell material solubilized by the addition of 0.5 mL of 0.25 N sodium hydroxide for 15 min. A 450 μL aliquot of each solubilized sample was transferred to a scintillation vial containing 3 mL of Ecolume scintillation cocktail and then counted in a liquid scintillation counter. Final results are expressed as the percentage of ^3H-thymidine incorporation relative to untreated controls.
# AN3CA = assay: as above; format: cell-based, human; settings: FR expression −; evaluated from 0.1-100 nM
# Method: as §1
# MDA-MB-231 = assay: as above; format: cell-based, human
# Method: as §1
# A549 = assay: as above; format: cell-based, human; settings: FR expression −; evaluated from 0.1-100 nM
# Method: as §1
# KB-DR150 tumors = assay: Vinca resistant KB-DR150 tumor model; format: in vivo, immunodeficient (XID) nu/nu mice
# ST502 tumors = assay: TNBC PDX tumor model; format: in vivo, Balb/c nu/nu mice; settings: combined with Eribulin mesylate 1 mg/kg
# Method: (§2) Female Balb/c nu/nu mice were fed ad libitum with folate-deficient chow (Harlan diet #TD01013) for the duration of the experiment. Primary human Endometrial model ST040, TNBC models 5T502 and ST738 and Ovarian model ST024 fragments (2-4 mm in diameter) were inoculated subcutaneously at the right flank of each mouse. Mice were randomized into 6 experimental groups of 5 or 3 mice each and test articles were injected through the lateral tail vein under sterile conditions in a volume of 200 μL of phosphate-buffered saline (PBS).
# (§3) Growth of each s.c. tumor was followed by measuring the tumor two times per week until a volume of 1200 mm^3 was reached. Tumors were measured in two perpendicular directions using Vernier calipers, and their volumes were calculated as 0.5×L×W^2, where L=measurement of longest axis in mm and W=measurement of axis perpendicular to L in mm.
# ST738 tumors = assay: TNBC PDX tumor model; format: in vivo, Balb/c nu/nu mice; settings: combined with Eribulin mesylate 1 mg/kg
# Method: as §2, §3
# [1] = EC1456 2 μmol/kg two times a week for two weeks
# [2] = EC1456 4 μmol/kg once a week for two weeks
structure (smiles),measurement,setting,value
CCCC(=O)OCN(C(=O)[C@@H](NC(=O)[C@H]1CCCCN1C)C(C)CC)[C@H](C[C@@H](OC(C)=O)c1nc(C(=O)N[C@@H](Cc2ccc(O)cc2)C[C@H](C)C(=O)NNC(=O)OCCSSC[C@@H](NC(=O)[C@H](CCC(=O)NC[C@H](O)[C@@H](O)[C@H](O)[C@H](O)CO)NC(=O)[C@@H](CCC(=O)O)NC(=O)[C@H](CCC(=O)NC[C@H](O)[C@@H](O)[C@H](O)[C@H](O)CO)NC(=O)[C@@H](CCC(=O)O)NC(=O)[C@H](CCC(=O)NC[C@H](O)[C@@H](O)[C@H](O)[C@H](O)CO)NC(=O)CC[C@@H](NC(=O)c2ccc(NCc3cnc4nc(N)[nH]c(=O)c4n3)cc2)C(=O)O)C(=O)O)cs1)C(C)C (stereo in doubt) [EC1456],IC50,NCl/ADR-RES-Cl2; FR expression ++,1.4 nM
same,Competable up to 100 nM,NCl/ADR-RES-Cl2; folic acid competition,Yes
same,Activity (IC50),AN3CA,Inactive
same,IC50,MDA-MB-231; FR expression +,0.47 nM
same,Competable up to 100 nM,MDA-MB-231; folic acid competition,Yes
same,Activity (IC50),A549,Inactive (a)
same,efficacy of co-administration of EC1456 and doxorubicin,KB-DR150 tumors; EC1456 2 μmol/kg TIW×2 + DOXIL 5 mg/kg BIW×2,enhanced technical effect over both monotherapies
same,efficacy of EC1456 alone compared to doxorubicin (DOXIL),KB-DR150 tumors; EC1456 2 μmol/kg TIW×2 vs DOXIL 5 mg/kg BIW×2,improved efficacy over doxorubicin
same,animals exhibiting CRs,ST502 tumors; [1],5 animals
same,animals exhibiting cures,ST502 tumors; [1],2 animals
same,animals exhibiting CR's,ST502 tumors; [2],3 animals
same,animals exhibiting PR's,ST502 tumors; [2],4 animals
same,animals exhibiting cures,ST738 tumors; [1],7 animals
same,animals exhibiting PR's,ST738 tumors; [2],2 animals
same,animals exhibiting cures,ST738 tumors; [2],4 animals
